From patent US20190315823A1, “SMALL CATIONIC ANTI-BIOFILM AND IDR PEPTIDES” (priority 2013, published 2019)
Ends that are not written are not given here.

What was measured:
[1] = test system: human peripheral blood mononuclear cells (MCP-1); experiment: SPOT-synthesized derivative screen: production of chemokine MCP-1; assay type: cell-based; details: Table 12, No LPS, human PBMC, peptide at ~18-24 μM; for MCP1: background subtracted 139 (HH2 derivatives), 170 (1018 derivatives), 242 (1002 and hybrid peptides) pg/ml
Procedure, shortened: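 MCP-1 was quantified by capture ELISA in cleared culture supernatants of treated human peripheral blood mononuclear cells. Cells came from heparinized volunteer blood via Ficoll gradient and were seeded at 0.75 to 1×10^6 cells/ml (37 °C, 5% CO2).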

[2] = test system: methicillin resistant Staphylococcus aureus (MRSA) biofilm; details: approximate peptide concentration […] (around 3 μg/ml); compared to untreated samples
Procedure, shortened: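 Peptide was present from inoculation onward, with bacteria seeded at 1/100 from overnight cultures into BM2 biofilm medium or Luria Broth. Crystal violet staining of surface-attached cells (A595) quantified biofilm reduction at 22–46 h. K. pneumoniae was additionally screened in a real-time Bioflux flow device for some peptides.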

[3] = test system: LPS-stimulated human peripheral blood mononuclear cells (IL1-β); assay type: cell-based; details: Table 12, cells stimulated with 10 ng/ml LPS; for IL1β Production: LPS alone 1313 (HH2 derivatives), 1927 (1018 derivatives), 2455 (1002 and hybrid peptides) pg/ml

Substance	Fold increase in MCP1 cf. untreated cells [1]	MCP1 [1]	% Biofilm inhibition [2]	Fold change in IL1β relative to no peptide LPS stimulated cells [3]	IL1β Production [3]
HH2-K7: single substituted HH2 peptide (VQLRIRKAVIRA-NH2)	1.7	117 pg/mL	7%	1.36	1782 pg/mL
1018-K10: single substituted 1018 peptide (VRLIVAVRIKRR-NH2) [Peptide 1018-K10]	3.3	390 pg/mL	63%	0.24	310 pg/mL
1018-W2: single substituted 1018 peptide (VWLIVAVRIWRR-NH2) [Peptide 1018-W2]	1.5	83 pg/mL	68%	0.73	962 pg/mL
HH2-K11: single substituted HH2 peptide (VQLRIRVAVIKA-NH2)	18	2884 pg/mL	43%	1.21	1593 pg/mL
1018-G1: single substituted 1018 peptide (GRLIVAVRIWRR-NH2) [Peptide 1018-G1]	216	36611 pg/mL	38%	0.10	127 pg/mL
HH2-R3: single substituted HH2 peptide (VQRRIRVAVIRA-NH2)	60	9987 pg/mL	0%	1.33	1746 pg/mL
1002-A4: single substituted 1002 peptide (VQRALIVWRIRK-NH2) [Peptide 1002-A4]	0.9	-36.2 pg/mL	52%	0.27	655 pg/mL
1002-A8: single substituted 1002 peptide (VQRWLIVARIRK-NH2) [Peptide 1002-A8]	0.9	-36.2 pg/mL	52%	0.09	219 pg/mL
HH2-R9: single substituted HH2 peptide (VQLRIRVARIRA-NH2)	3.4	406 pg/mL	65%	1.60	2099 pg/mL
1018-G7: single substituted 1018 peptide (VRLIVAGRIWRR-NH2) [Peptide 1018-G7]	25	4098 pg/mL	47%	1.23	1610 pg/mL
HH2-K4: single substituted HH2 peptide (VQLKIRVAVIRA-NH2)	10	1553 pg/mL	65%	0.58	759 pg/mL
1002-G9: single substituted 1002 peptide (VQRWLIVWGIRK-NH2) [Peptide 1002-G9]	2.8	444.4 pg/mL	44%	0.05	127 pg/mL
1002-I3: single substituted 1002 peptide (VQIWLIVWRIRK-NH2) [Peptide 1002-I3]	13.2	2953.7 pg/mL	62%	0.05	127 pg/mL
1002-Q7: single substituted 1002 peptide (VQRWLIQWRIRK-NH2) [Peptide 1002-Q7]	0.9	-36.2 pg/mL	45%	0.06	138 pg/mL
HH2-A3: single substituted HH2 peptide (VQARIRVAVIRA-NH2)	1.3	59 pg/mL	52%	1.44	1886 pg/mL
1018-Q10: single substituted 1018 peptide (VRLIVAVRIQRR-NH2) [Peptide 1018-Q10]	0.7	-54 pg/mL	38%	0.12	154 pg/mL
1018-I1: single substituted 1018 peptide (IRLIVAVRIWRR-NH2) [Peptide 1018-I1]	18	2873 pg/mL	56%	0.11	138 pg/mL
1018-W8: single substituted 1018 peptide (VRLIVAVWIWRR-NH2) [Peptide 1018-W8]	0.8	-28 pg/mL	43%	0.34	448 pg/mL
1018-W9: single substituted 1018 peptide (VRLIVAVRWWRR-NH2) [Peptide 1018-W9]	2.5	247 pg/mL	69%	0.10	127 pg/mL
1002-L2: single substituted 1002 peptide (VLRWLIVWRIRK-NH2) [Peptide 1002-L2]	9.1	1968.2 pg/mL	72%	0.05	127 pg/mL
1002-A11: single substituted 1002 peptide (VQRWLIVWRIAK-NH2) [Peptide 1002-A11]	3.0	485.3 pg/mL	52%	0.05	127 pg/mL
1018-I7: single substituted 1018 peptide (VRLIVAIRIWRR-NH2) [Peptide 1018-I7]	5.2	714 pg/mL	63%	0.10	127 pg/mL
1018-K11: single substituted 1018 peptide (VRLIVAVRIWKR-NH2) [Peptide 1018-K11]	9.3	1419 pg/mL	68%	0.13	170 pg/mL
HH2-V3: single substituted HH2 peptide (VQVRIRVAVIRA-NH2)	211	35750 pg/mL	57%	1.27	1665 pg/mL
HH2-Q9: single substituted HH2 peptide (VQLRIRVAQIRA-NH2)	34	5588 pg/mL	43%	1.01	1321 pg/mL
1002-G7: single substituted 1002 peptide (VQRWLIGWRIRK-NH2) [Peptide 1002-G7]	0.9	-36.2 pg/mL	54%	0.14	353 pg/mL
1002-G11: single substituted 1002 peptide (VQRWLIVWRIGK-NH2) [Peptide 1002-G11]	2.9	465.0 pg/mL	60%	0.05	127 pg/mL
1018-K12: single substituted 1018 peptide (VRLIVAVRIWRK-NH2) [Peptide 1018-K12]	4.1	531 pg/mL	67%	0.10	127 pg/mL
1018-G10: single substituted 1018 peptide (VRLIVAVRIGRR-NH2) [Peptide 1018-G10]	0.8	-41 pg/mL	55%	0.46	605 pg/mL
1002-A1: single substituted 1002 peptide (AQRWLIVWRIRK-NH2) [Peptide 1002-A1]	19.8	4559.2 pg/mL	55%	0.05	127 pg/mL
